According to US20250280826A1, “PLANT GROWTH PROMOTER” (KAO CORPORATION, priority 2022, published 2025):

What was measured:
Type in all cases: in vivo
chickpea = test: Example 7: initial growth index in chickpea (above-ground part dry weight); conditions: ascorbic acid 1 500 mass ppm, tap water vs deionized water
Description: Medium-term fertilizer effect type culture soil (Takii hydrous cell medium-term fertilizer effect type, Takii & Co., Ltd.) and vermiculite grains (Akagi-Engei Co., Ltd.) were mixed at a volume ratio of 1:1, and the soil was placed in a polypot (diameter: 10.5 cm, height: 9 cm). The chickpea used was seeds of Kabuli species (purchased from Nikko Seed Co. Ltd.). After tap water was supplied in an amount of 250 mL per pot, 2 seeds per pot were each sown at a depth of from about 1 to 2 cm from the soil surface. The number of repeats in each test plot was 6 (n=6). […]
The cultivation conditions and the foliar spray treatment method were the same as those in Example 6 (example of azuki bean). The evaluated test plots 1 to 4 are as follows.
On day 28 after sowing, the plant body was dried at 90° C. for 24 hours, and the above-ground part dry weight of the plant body was then measured. • 1 plot: control (no application) • 2 plot: foliar spray of 1 500 mass ppm ascorbic acid (dissolved in tap water) • 3 plot: foliar spray of 1 500 mass ppm ascorbic acid (dissolved in deionized water) • 4 plot: foliar spray of 1 500 mass ppm ascorbic acid+1 mass ppm BHT+50 mass ppm isobutyl alcohol+350 mass ppm sorbitan monolaurate (dissolved in tap water) […]

soybean = test: Example 4: soybean yield-enhancing effect in field (dry grain mass); conditions: ascorbic acid 1,500 ppm, one foliar spray, 6.7 mL per plant, day 75 after sowing
Description: The influence of foliar spray of a composition containing 1 500 ppm ascorbic acid on soybean yield was evaluated. Foliar spray was carried out only once, and types of test plots were examined (Table 5). The cultivation of soybean was carried out in a field in Tochigi Prefecture, and the soybean cultivar used was “Sato no Hohoemi.” Of the field, a ridge with a width of 2 m excluding the perimeter was used as one plot, and foliar spray treatment was carried out. 3 plot tests were carried out per test plot. An average of 10 plants were cultivated in the range of 2 m, which was set as one plot. In addition to the reagents mentioned in Example 2, polyoxyethylene lauryl ether was used as a nonionic surfactant. Further, the urea, potassium dihydrogen phosphate, sodium sulfite, glutathione, and EDTA used were those manufactured by FUJIFILM Wako Pure Chemical Corporation. The reagents were dissolved in tap water or deionized water to prepare spraying solutions. By using a battery-driven atomizer (GT-5HS, Koshin Ltd.), 6.7 mL of the ascorbic acid aqueous solution per plant was sprayed over the entire soybean plant body. […] The dry grain mass was measured as yield data. After calculating the average grain weight of each plant in one plot, the mean and the standard deviation for the eight plots were calculated (FIG. 9).

azuki bean = test: Example 6: initial growth index in azuki bean (above-/below-ground part dry weight); conditions: ascorbic acid 1 500 mass ppm, tap water vs deionized water
Description: Medium-term fertilizer effect type culture soil (Takii hydrous cell medium-term fertilizer effect type, Takii & Co., Ltd.) and vermiculite grains (Akagi-Engei Co., Ltd.) were mixed at a volume ratio of 1:1, and the soil was placed in a polypot (diameter: 10.5 cm, height: 9 cm). The azuki bean seeds used were “Tamba Dainagon Azuki Beans” (purchased from Takii & Co., Ltd.). After tap water was supplied in an amount of 250 mL per pot, 2 seeds per pot were each sown at a depth of from about 1 to 2 cm from the soil surface. The number of repeats in each test plot was 6 (n=6). […]
Spraying solutions were prepared, and 6.7 mL of each per plant was sprayed only once using a mister on day 21 after sowing. […] The evaluated test plots 1 to 4 are as follows.
On day 28 after sowing, the plant body was dried at 90° C. for 24 hours, and the above-ground part dry weight and below-ground part dry weight of the plant body were then measured. • 1 plot: control (no application) • 2 plot: foliar spray of 1 500 mass ppm ascorbic acid (dissolved in tap water) • 3 plot: foliar spray of 1 500 mass ppm ascorbic acid (dissolved in deionized water) • 4 plot: foliar spray of 1 500 mass ppm ascorbic acid+1 mass ppm BHT+50 mass ppm isobutyl alcohol+350 mass ppm sorbitan monolaurate (dissolved in tap water)

With O=C1O[C@H]([C@@H](O)CO)C(O)=C1O [ascorbic acid, (R)-3,4-dihydroxy-5-((S)-1,2-dihydroxyethyl)furan-2(5H)-one] the “effects on the initial growth index” value (chickpea) was “varied in accordance with the water quality”, the “effects of tap water and deionized water on seed weight” value (soybean) was “different from each other” and the “effects on the initial growth index” value (azuki bean) was “varied in accordance with the water quality”.
